Assay results as given in ChEMBL document CHEMBL6074685, “Design, synthesis and biological evaluation of novel diaryl-substituted fused nitrogen heterocycles as tubulin polymerization inhibitors to overcome multidrug resistance in vitro and in vivo” (Eur J Med Chem, 2025).
In brackets after ≈: the same amount, converted by molar mass. Activity calls are given as the source filed them. No cut-off for these calls is given here.

Assays:
[1] = Resistance index, ratio of IC50 for human A549/T cells to IC50 for human A549 cells; format: functional
[2] = Cytotoxicity against human MCF-10A cells assessed as inhibition of cell growth at 2 nM incubated for 48 hrs by MTT assay relative to control; format: toxicity, cell-based
[3] = Cytotoxicity against human MCF-10A cells assessed as inhibition of cell growth at 10 nM incubated for 48 hrs by MTT assay relative to control; format: toxicity, cell-based
NCI-H1299 = experiment: Antiproliferative activity against human NCI-H1299 cells assessed as cell growth inhibition incubated for 48 hrs by MTT assay; format: functional, cell-based; details: NCI-H1299, 48 h
HCC827 = experiment: Antiproliferative activity against human HCC827 cells assessed as cell growth inhibition incubated for 48 hrs by MTT assay; format: functional, cell-based; details: HCC827, 48 h
[4] = (§1) Inhibition of pig brain tubulin polymerization measured upto 20 mins by absorbance based assay; set-up: species or system Sus scrofa
Sus scrofa = organism: Sus scrofa; experiment: as §1; details: dose 0.4-12 µM
Tubulin (Homo sapiens) [5] = target: T1, Tubulin (Homo sapiens) (UniProt P68371+Q9H4B7+P0DPH7+P68366+Q13509+Q71U36+P04350+Q3ZCM7+P07437+P68363+Q9BQE3+Q6PEY2+Q13885+Q9BVA1+Q9BUF5); experiment: Disruption of microtubule network in human A549 cells at 50 to 100 nM incubated for 24 hrs by immunofluorescence staining based confocal microscopy analysis; format: cell-based; details: dose 50-100 nM
Tubulin (Homo sapiens) [6] = target: T1, Tubulin (Homo sapiens); experiment: Disruption of microtubule network in human A549/T cell at 100 to 200 nM incubated for 24 hrs by immunofluorescence staining based confocal microscopy analysis; details: dose 100-200 nM
A549/TR [7] = experiment: Effect on p-gp expression in human A549/T cell by immunoblotting analysis; format: functional, cell-based
A549 [8] = experiment: Induction of cell cycle arrest in human A549 cells assessed as accumulation of cells at G2/M phase by RNAse A/PI-staining based flow cytometric analysis; format: functional; details: dose 25-100 nM
A549/TR [9] = experiment: Induction of cell cycle arrest in human A549/T cell assessed as accumulation of cells at G2/M phase by RNAse A/PI-staining based flow cytometric analysis; format: functional; details: dose 25-100 nM
A549 [10] = experiment: Induction of apoptosis in human A549 cells at 100 nM incubated for 48 hrs by V-FITC/PI staining based flow cytometry analysis relative to control; format: functional
A549/TR [11] = experiment: Induction of apoptosis in human A549/T cell at 62.5 nM incubated for 48 hrs by V-FITC/PI staining based flow cytometry analysis relative to control; format: functional
A549/TR [12] = experiment: Induction of apoptosis in human A549/T cell at 250 nM incubated for 48 hrs by V-FITC/PI staining based flow cytometry analysis relative to control; format: functional
[13] = Metabolic stability in mouse liver microsome assessed as half life measured upto 50 mins by LC-MS/MS analysis; format: ADME; details: liver microsomes
[14] = Metabolic stability in mouse liver microsome assessed as intrinsic clearance measured upto 50 mins by LC-MS/MS analysis; format: ADME; details: liver microsomes, read-out: CLH
[15] = Aqueous solubility of the compound […] at pH 7.4 by HPLC analysis; format: physicochemical
A549/TR [16] = experiment: Antitumor activity against human A549/T cell xenografted in BALB/c mouse assessed as reduction in tumor growth at 15 mg/kg, ip administered every 2 days; format: functional, organism-based; details: time 2.0 day
[17] = Toxicity in BALB/c mouse implanted with human A549/T cell assessed as heart damage at 15 to 30 mg/kg, ip administered every 2 days by H and E staining based analysis; format: organism-based; details: in vivo, 48 h, dose 15-30 mg/kg, time 2 day
[18] = Toxicity in BALB/c mouse implanted with human A549/T cell assessed as spleen damage at 15 to 30 mg/kg, ip administered every 2 days by H and E staining based analysis; format: organism-based; details: in vivo, 48 h, dose 15-30 mg/kg, time 2 day
[19] = Toxicity in BALB/c mouse implanted with human A549/T cell assessed as lung damage at 15 to 30 mg/kg, ip administered every 2 days by H and E staining based analysis; format: organism-based; details: in vivo, 48 h, dose 15-30 mg/kg, time 2 day
[20] = Toxicity in BALB/c mouse implanted with human A549/T cell assessed as kidney damage at 15 to 30 mg/kg, ip administered every 2 days by H and E staining based analysis; format: organism-based; details: in vivo, 48 h, dose 15-30 mg/kg, time 2 day
[21] = Toxicity in BALB/c mouse implanted with human A549/T cell assessed as red blood cell distribution width-cell volume at 30 mg/kg, ip administered every 2 days and measured after 2 weeks (reference value: 25fL); format: organism-based; details: in vivo, 336 h
[22] = Toxicity in BALB/c mouse implanted with human A549/T cell assessed as red blood cell distribution width-cell size at 15 mg/kg, ip administered every 2 days and measured after 2 weeks (reference value: 12.1 fL); format: organism-based; details: in vivo, 336 h
[23] = Toxicity in BALB/c mouse implanted with human A549/T cell assessed as platelet count at 15 mg/kg, ip administered every 2 days and measured after 2 weeks (reference value: 539 […]); format: organism-based; details: in vivo, 336 h
[24] = Toxicity in BALB/c mouse implanted with human A549/T cell assessed as platelet count at 30 mg/kg, ip administered every 2 days and measured after 2 weeks (reference value: 539 […]); format: organism-based; details: in vivo, 336 h
[25] = Toxicity in BALB/c mouse implanted with human A549/T cell assessed as Plate-letocrit at 15 mg/kg, ip administered every 2 days and measured after 2 weeks (reference value: 0.549%); format: organism-based; details: in vivo, 336 h
[26] = Toxicity in BALB/c mouse implanted with human A549/T cell assessed as Plate-letocrit at 30 mg/kg, ip administered every 2 days and measured after 2 weeks (reference value: 0.549%); format: organism-based; details: in vivo, 336 h
[27] = Toxicity in BALB/c mouse implanted with human A549/T cell assessed as mean platelet volume at 15 mg/kg, ip administered every 2 days and measured after 2 weeks (reference value: 10.1 fL); format: organism-based; details: in vivo, 336 h
[28] = Toxicity in BALB/c mouse implanted with human A549/T cell assessed as platelet distribution width at 30 mg/kg, ip administered every 2 days and measured after 2 weeks (reference value: 15.3 fL); format: organism-based; details: in vivo, 336 h
[29] = Toxicity in BALB/c mouse implanted with human A549/T cell assessed as MCHC level at 15 mg/kg, ip administered every 2 days and measured after 2 weeks (reference value: 570 g/L); format: organism-based; details: in vivo, 336 h
[30] = Toxicity in BALB/c mouse implanted with human A549/T cell assessed as MCHC level at 30 mg/kg, ip administered every 2 days and measured after 2 weeks (reference value: 570 g/L); format: organism-based; details: in vivo, 336 h
[31] = Toxicity in BALB/c mouse implanted with human A549/T cell assessed as lymphocyte count at 15 mg/kg, ip administered every 2 days and measured after 2 weeks (reference value: […]); format: organism-based; details: in vivo, 336 h
[32] = Toxicity in BALB/c mouse implanted with human A549/T cell assessed as lymphocyte count at 15 mg/kg, ip administered every 2 days and measured after 2 weeks (reference value: 56%); format: organism-based; details: in vivo, 336 h
[33] = Toxicity in BALB/c mouse implanted with human A549/T cell assessed as lymphocyte count at 30 mg/kg, ip administered every 2 days and measured after 2 weeks (reference value: 56%); format: organism-based; details: in vivo, 336 h

COc1ccc(-c2cc(-c3ccc(OC)c(OC)c3OC)c3nc[nH]c3c2)cc1N
Ratio IC50 [1]: 2.47 | inhibition at 48 h, 0.002 µM [2]: 1% | inhibition at 48 h, 0.01 µM [3]: 20% | IC50 (NCI-H1299): 63 nM | IC50 (HCC827): 46 nM | IC50 [4]: 1800 nM | inhibition (Sus scrofa): Dose-dependent-effect | Activity (Tubulin (Homo sapiens) [5]): Active | Activity (Tubulin (Homo sapiens) [6]): Active | Activity (A549/TR [7]): Active | Activity (A549 [8]): Dose-dependent-effect | Activity (A549/TR [9]): Dose-dependent-effect | Activity (A549 [10]): 44.42% | Activity (A549/TR [11]): 22.22% | Activity (A549/TR [12]): 68.13% | half-life [13]: 1.05 h | CLint scaled [14]: 87 mL/min/kg | solubility [15]: 20.8 µg/mL (≈ 51.3 µM) | Activity (A549/TR [16]): Active | Activity [17]: Non-toxic | Activity [18]: Non-toxic | Activity [19]: Non-toxic | Activity [20]: Non-toxic | Activity [21]: 25 fL | Activity [22]: 12.1 fL | Activity [23]: 505 10^9/L | Activity [24]: 415 10^9/L | Activity [25]: 0.531% | Activity [26]: 0.425% | Activity [27]: 10.5 fL | Activity [28]: 16.9 fL | Activity [29]: 589 g/L | Activity [30]: 624 g/L | Activity [31]: 1.42 10^9/L | Activity [32]: 50.7% | Activity [33]: 55.2%
